From PubChem BioAssay (NCI)
Where “and” joins values, the source holds several entries; their conditions need not be identical. Identical values can stand only once.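 Growth conditions: 96-well plates. Treatment: test compound, 48 hours, 5 concentrations. Analysis: linear interpolation between bracketing concentrations; unreached endpoints set to highest concentration. GI50 is the concentration that inhibits growth by half. TGI denotes the concentration required for complete inhibition of growth.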

What was measured:
Test in all cases: NCI tumour cell line growth inhibition, 48 h
A549 NSCLC = system: A549 NSCLC
CAKI-1 renal = system: CAKI-1 renal
MDA-MB-435 = system: MDA-MB-435
NCI-H226 lung = system: NCI-H226 lung
NCI/ADR-RES ovarian = system: NCI/ADR-RES ovarian
RPMI-8226 leukemia = system: RPMI-8226 leukemia
RXF 393 renal = system: RXF 393 renal
SK-MEL-5 melanoma = system: SK-MEL-5 melanoma
DLD-1 colon = system: DLD-1 colon
LXFL 529 NSCLC = system: LXFL 529 NSCLC

Structure (SMILES)	TGI (A549 NSCLC)	TGI (CAKI-1 renal)	TGI (MDA-MB-435)	TGI (NCI-H226 lung)	TGI (NCI/ADR-RES ovarian)	TGI (RPMI-8226 leukemia)	TGI (RXF 393 renal)	TGI (SK-MEL-5 melanoma)	TGI (DLD-1 colon) [µM]	TGI (LXFL 529 NSCLC) [µM]	GI50 (A549 NSCLC)	GI50 (CAKI-1 renal)	GI50 (MDA-MB-435)	GI50 (NCI-H226 lung)	GI50 (NCI/ADR-RES ovarian)	GI50 (RPMI-8226 leukemia)	GI50 (RXF 393 renal)	GI50 (SK-MEL-5 melanoma)
COc1ccc(C2SC(N)=Nc3c2c(C)nn3C(=O)c2ccc(Cl)cc2)cc1OC (stereo not given)	> 10 µM	> 10 µM	> 10 µM	> 10 µM	> 10 µM	> 10 µM	> 10 µM	> 10 µM	–	–	–	–	–	–	–	–	–	–
CCC1(Br)C(=O)NC(=O)N(C2CC(O)C(CO)O2)C1N=[N+]=[N-] (stereo not given)	> 100 µM	> 100 µM	–	–	–	> 100 µM	> 100 µM	> 100 µM	> 100	> 100	–	–	–	–	–	–	–	–
O=[N+]([O-])c1ccc(N=Nc2c(O)[nH]c3ccc([N+](=O)[O-])cc23)cc1	32.4 µM	> 100 µM	–	7 µM	–	36.2 µM	36.5 µM	26.7 µM	> 100	26.4	–	–	–	–	–	–	–	–
CC(C)n1c(/C=C/[C@@H](O)C[C@@H](O)CC(=O)O)c(-c2ccc(F)cc2)c2ccccc21	> 100 µM	2.99 µM and 2.69 µM	> 100 µM	> 100 µM	> 100 µM	> 100 µM	> 100 µM and 18.9 µM	35.4 µM and 27 µM	–	–	5.93 µM and 6.99 µM	0.594 µM and 0.542 µM	10.5 µM and 14.4 µM	2.89 µM and 3.71 µM	0.554 µM and 0.845 µM	5.55 µM and 10.3 µM	3.54 µM and 2.12 µM	3.94 µM and 4.9 µM
CC1(C)C(=O)C(O)=CC2C1=CCC1C2(C)C(=O)CC2(C)C(C(C)(O)C(=O)CC(O)C(C)(C)O)C(O)CC12C (stereo not given)	> 74.1 µM	5.1 µM	–	7.31 µM	–	19.1 µM	5.54 µM	8.53 µM	> 74.6	17.4	–	–	–	–	–	–	–	–
Clc1ccc(COC(Cn2ccnc2)c2ccc(Cl)cc2Cl)cc1 (stereo not given)	12.1 µM and 27 µM and 23.9 µM	9.58 µM and 24.9 µM and 23.6 µM	11.7 µM and 24.4 µM and 24 µM	22.1 µM and 50 µM and 11.7 µM	7.56 µM and 23.3 µM and 24.9 µM	6.82 µM and 32.3 µM and 23.2 µM	6.78 µM and 31.7 µM and 29.1 µM	3.64 µM and 31 µM and 18.9 µM	–	–	2.78 µM	2.05 µM	2.91 µM	–	0.787 µM	1.9 µM	2.01 µM	1.74 µM and 17.2 µM and 4.83 µM
COC(=O)C1=CCON(c2ccccc2)C1c1ccccc1 (stereo not given)	> 100 µM	> 100 µM	–	> 100 µM	–	> 100 µM	> 100 µM	–	> 100	> 100	–	–	–	–	–	–	–	–
CCc1ccccc1NC(=O)C(=O)C(C(=O)c1ccc(OC)cc1)c1ccc(OC)cc1 (stereo not given)	> 100 µM	> 100 µM	–	> 100 µM	–	> 100 µM	–	> 100 µM	> 100	> 100	–	–	–	–	–	–	–	–
O=C1c2ccccc2N2OC3(N4CCCC4)CCCC3C12c1ccccc1 (stereo not given)	> 100 µM	–	–	> 100 µM	–	> 100 µM	> 100 µM	> 100 µM	> 100	> 100	–	–	–	–	–	–	–	–
O=C(Nc1ccc(OC(F)(F)F)cc1)c1sccc1NCc1ccnc2ccccc12	> 100 µM	19.3 µM	18.7 µM	> 90.6 µM	> 100 µM	29.8 µM	6.96 µM	7.21 µM	–	–	4.11 µM	1.75 µM	2.87 µM	2.89 µM	2.81 µM	3.32 µM	1.8 µM	2.37 µM
COc1ccc(OC)c(-c2cc(-c3ccccc3)nn2-c2ccc(S(=O)(=O)NC(C)=O)cc2)c1	> 100 µM	33.9 µM	22.9 µM	24.8 µM	11.5 µM	4.36 µM	9.31 µM	26.8 µM	–	–	22.9 µM	13.9 µM	5.77 µM	11.7 µM	3.38 µM	1.97 µM	4.07 µM	11.8 µM
CCOC(=O)c1c(NC(=O)c2ccc(C(C)C)cc2)sc2c(CN(C)C)c(O)ccc12	20.7 µM	3.44 µM	3.37 µM	6.48 µM	4.52 µM	4.6 µM	3.39 µM	3.11 µM	–	–	4.29 µM	1.73 µM	1.77 µM	2.19 µM	1.89 µM	1.84 µM	1.74 µM	1.73 µM
Cc1c(C)c2cc3c(=O)ccoc3c(C)c2oc1=O	> 100 µM	–	–	> 100 µM	–	> 100 µM	> 100 µM	> 100 µM	–	> 100	–	–	–	–	–	–	–	–
Fc1cccc(COc2ccc(Nc3ncnc4sc(-c5ccco5)cc34)cc2Cl)c1	> 25 µM	> 25 µM	> 25 µM	> 25 µM	> 25 µM	> 25 µM	> 25 µM	> 25 µM	–	–	> 25 µM	> 25 µM	> 25 µM	> 25 µM	> 25 µM	> 25 µM	> 25 µM	> 25 µM
O=C1[C@@H](c2ccc(Cl)cc2)[C@H]2CC=C[C@H]2N1O	> 100 µM	> 100 µM	–	> 100 µM	–	> 100 µM	> 100 µM	> 100 µM	> 100	> 100	–	–	–	–	–	–	–	–
CC1(C)O[C@H]2OC3CCC(=O)CC3(O)[C@H]2O1 (stereo not given in full)	> 100 µM	> 100 µM	> 100 µM	> 100 µM	> 100 µM	> 100 µM	> 100 µM	> 100 µM	> 100	–	–	–	–	–	–	–	–	–
COc1ccc([C@H]2CC(=O)N3CCCC3N2)cc1 (stereo not given in full)	> 100 µM	> 100 µM	–	> 100 µM	–	> 100 µM	> 100 µM	> 100 µM	> 100	> 100	–	–	–	–	–	–	–	–
Nc1nc2c(ncn2Cc2ccccc2CCO)c(=O)[nH]1	> 100 µM	> 100 µM	–	> 100 µM	–	> 100 µM	> 100 µM	> 100 µM	–	> 100	–	–	–	–	–	–	–	–
Cc1cc(C)c2c(c1)CN1CN2Cc2cc(C)cc(C)c21	> 100 µM	> 100 µM	–	61.5 µM	–	52.2 µM	22.4 µM	–	58.3	> 100	–	–	–	–	–	–	–	–
Nc1cc2c3c(cccc3c1)NC2=O	> 100 µM	> 100 µM	> 100 µM	> 100 µM	> 100 µM	> 100 µM	> 100 µM	> 100 µM	–	–	–	–	–	–	–	–	–	–
